Test results taken from US10442804B2, “Compounds for the treatment of hepatitis B virus infection” (Gilead Sciences, Inc., priority 2017, dated 2019).
Read-outs that look alike come from different tables or passages of the source.

How the values were obtained:
[1] = test system: HBV-infected NTCP-HepG2 cells, secreted HBsAg; experiment: microbe, parasite or virus in culture; format: cell-based, hepatitis B virus (genotype D, AD38-derived); settings: Hepatitis B virus, 120 h, read-out: NTCP HBsAg EC50
Experimental: NTCP-HepG2 Antiviral Assay for Secreted HBsAg
HepG2 cells stably expressing sodium-taurocholate cotransporting polypeptide (NTCP-HepG2) were grown in Dulbecco's Modified Eagle Medium (DMEM) without sodium pyruvate (Thermo Fisher Scientific, Waltham, Mass.) supplemented with 10% fetal bovine serum, 2 mM L-glutamine, 1% penicillin/streptomycin, and 0.25 mg/mL G-418. NTCP-HepG2 cells were infected with 4000 genome equivalent per cell of genotype D (AD38-derived) HBV in DMEM without sodium pyruvate (Thermo Fisher Scientific, Waltham, Mass.) supplemented with 2% fetal bovine serum, 2 mM L-glutamine, 1% penicillin/streptomycin, 2.5% DMSO, and 4% PEG 8000 (Promega, Madison, Wis.). After 24-hour incubation, cells were washed three times with OptiMEM (Thermo Fisher Scientific, Waltham, Mass.) and fed with fresh DMEM without sodium pyruvate (Thermo Fisher Scientific, Waltham, Mass.) supplemented with 2% fetal bovine serum, 2 mM L-glutamine, 1% penicillin/streptomycin, and 2.5% DMSO. At 4 days after infection, infected NTCP-HepG2 cells were seeded on 384-well plates pre-coated with collagen at a density of 20000 cells per well containing serially diluted compounds of the present disclosure or DMSO (0.5%) in a final volume of 80 μl of DMEM without sodium pyruvate (Thermo Fisher Scientific, Waltham, Mass.) supplemented with 2% fetal bovine serum, 2 mM L-glutamine, 1% penicillin/streptomycin, and 1% DMSO. After an incubation time of 5 days, cell culture supernatant was collected and measured for HBsAg.
Secreted HBsAg in the supernatant were measured using a multiplex chemiluminescent MSD assay (Meso Scale Discovery, Rockville, Md.) using capture and detection antibody pairs specific for HBsAg. The EC50 values were calculated from the fit of the dose-response curves to a four-parameter equation. All EC50 values represent geometric mean values of a minimum of four determinations.

MT-4 cytotoxicity assay = format: cell-based, human; settings: human
Experimental: Biological Example 2: MT-4 Cytotoxicity Assay
The MT-4 cell line (HTLV-1 transformed, human T lymphoblastoid cells) was obtained from the NIH AIDS Reagent program (Bethesda, Md.). MT-4 cells were maintained in RPMI-1640 media (Thermo Fisher Scientific, Waltham, Mass.) supplemented with 10% fetal bovine serum, 100 Units/mL penicillin, and 100 μg/mL streptomycin. For the MT-4 cytotoxicity assay, 0.4 μL of serially diluted solutions of certain compounds disclosed herein were added to 40 μL of cell maintenance media in 384-well black, solid bottom plate using a Biomek FX workstation (Beckman Coulter, Brea, Calif.). Two thousand cells in 35 μL were added to each well using a Biotek uFlow Workstation (Biotek, Winooski, Vt.). Each assay plate contained 10 μM puromycin (final concentration) and 0.5% DMSO in RPMI-1640 media as positive and negative controls, respectively. Assay plates were incubated for five days at 37° C. in an incubator set at 5% CO2 and 90% humidity. After five days, 22 μL of Cell Titer Glo reagent (Promega, Madison, Wis.) was added to the assay plates with a Biotek uFlow Workstation. Plates were subsequently placed on an Envision Plate Reader (Perkin Elmer, Waltham, Mass.) for five minutes before the luminescence signal was read. CC50 values were defined as the compound concentration that caused a 50% decrease in luminescence signal, and were calculated by non-linear regression using Pipeline Pilot software by applying a four parameter fit equation (Accelrys, San Diego, Calif.) and are reported in the following Table 1.

[2] = secreted HBsAg in supernatant after 5 days, geometric mean of minimum four determinations
[3] = five days, Cell Titer Glo luminescence, read-out: MT-4 CC50

Row | SMILES | EC50 [1, 2] [nM] | CC50 at 5 days (MT-4 cytotoxicity assay; [3]) [nM] | CC50 at 5 days (MT-4 cytotoxicity assay; MT-4 CC50) [nM] | EC50 [1] [nM]
1 | COCCCOc1cc2c(cc1CO)-c1cc(=O)c(C(=O)O)cn1N1[C@@H]2CCC1(C)C [Compound 113, (R)-11-(hydroxymethyl)-12-(3-methoxypropoxy)-3,3-dimethyl-8-oxo-2,3,8,13b-tetrahydro-1H-pyrido[2,1-a]pyrrolo[1,2-c]phthalazine-7-carboxylic acid] | 22.7 | > 10000 | – | –
2 | COCCCOc1cc2c(cc1Cl)-c1cc(=O)c(C(=O)O)cn1[C@H]1[C@H]2CCC1(C)C (single isomer, unassigned) [Example 35] | 49 | > 10000 | – | –
3 | COCCCOc1cc2c(cc1Cl)-c1cc(=O)c(C(=O)O)cn1N1[C@H]2CCC12CC2 (single isomer, unassigned) [Example 57] | > 1000 | – | > 10000 | –
4 | CC1(C)CC[C@@H]2c3cc(OCCCOC(F)(F)F)c(Cl)cc3-c3cc(=O)c(C(=O)O)cn3N21 [Example 55, (R)-11-chloro-3,3-dimethyl-8-oxo-12-(3-(trifluoromethoxy)propoxy)-2,3,8,13b-tetrahydro-1H-pyrido[2,1-a]pyrrolo[1,2-c]phthalazine-7-carboxylic acid] | 3.7 | 6800 | – | –
5 | COCCCOc1cc2c(cc1Cl)-c1cc(=O)c(C(=O)O)cn1N1C2CCCC1(C)C (stereo not drawn) [Example 11, 13-chloro-12-(3-methoxypropoxy)-7,7-dimethyl-2-oxo-2,7,8,9,10,10a-hexahydrodipyrido[2,1-a:1′,2′-c]phthalazine-3-carboxylic acid] | 4.3 | > 10000 | – | –
6 | COC(C)(C)C#Cc1cc2c(cc1OC(F)(F)F)-c1cc(=O)c(C(=O)O)cn1N1[C@@H]2CCC1(C)C [Example 90, (R)-12-(3-methoxy-3-methylbut-1-yn-1-yl)-3,3-dimethyl-8-oxo-11-(trifluoromethoxy)-2,3,8,13b-tetrahydro-1H-pyrido[2,1-a]pyrrolo[1,2-c]phthalazine-7-carboxylic acid] | 5 | > 10000 | – | –
7 | CC1(C)CC[C@@H]2c3cc(OCC4CC(F)(F)C4)c(Cl)cc3-c3cc(=O)c(C(=O)O)cn3N21 [Example 54, (R)-11-chloro-12-((3,3-difluorocyclobutyl)methoxy)-3,3-dimethyl-8-oxo-2,3,8,13b-tetrahydro-1H-pyrido[2,1-a]pyrrolo[1,2-c]phthalazine-7-carboxylic acid] | 0.75 | 5300 | – | –
8 | COc1cc2c(cc1OCCCOC(C)(C)C)[C@H]1CCC(C)(C)N1n1cc(C(=O)O)c(=O)cc1-2 [Example 65, (R)-12-(3-(tert-butoxy)propoxy)-11-methoxy-3,3-dimethyl-8-oxo-2,3,8,13b-tetrahydro-1H-pyrido[2,1-a]pyrrolo[1,2-c]phthalazine-7-carboxylic acid] | 0.41 | > 10000 | – | –
9 | COCCCOc1cc2c(cc1OCC(F)F)-c1cc(=O)c(C(=O)O)cn1N1[C@@H]2CCC1(C)C [Example 27, (R)-11-(2,2-difluoroethoxy)-12-(3-methoxypropoxy)-3,3-dimethyl-8-oxo-2,3,8,13b-tetrahydro-1H-pyrido[2,1-a]pyrrolo[1,2-c]phthalazine-7-carboxylic acid] | 3.7 | > 10000 | – | –
10 | COCCCOc1cc2c(cc1Cl)-c1cc(=O)c(C(=O)O)cn1N1CCC[C@@H]21 (single isomer, unassigned) [Example 3] | > 1000 | 9100 | – | –
11 | COCCCOc1cc2c(cc1OCCCOC)[C@H]1CCC(C)(C)N1n1cc(C(=O)O)c(=O)cc1-2 [Example 23, (R)-11,12-bis(3-methoxypropoxy)-3,3-dimethyl-8-oxo-2,3,8,13b-tetrahydro-1H-pyrido[2,1-a]pyrrolo[1,2-c]phthalazine-7-carboxylic acid] | 53 | > 10000 | – | –
12 | COCCCOc1cc2c(cc1C1COC1)-c1cc(=O)c(C(=O)O)cn1N1[C@@H]2CCC1(C)C [Example 77, (R)-12-(3-methoxypropoxy)-3,3-dimethyl-11-(oxetan-3-yl)-8-oxo-2,3,8,13b-tetrahydro-1H-pyrido[2,1-a]pyrrolo[1,2-c]phthalazine-7-carboxylic acid] | 12.5 | > 10000 | – | –
13 | CC1(C)CC[C@@H]2c3cc(OCC45CC(C#N)(C4)C5)c(OC(F)(F)F)cc3-c3cc(=O)c(C(=O)O)cn3N21 [Example 92, (R)-12-((3-cyanobicyclo[1.1.1]pentan-1-yl)methoxy)-3,3-dimethyl-8-oxo-11-(trifluoromethoxy)-2,3,8,13b-tetrahydro-1H-pyrido[2,1-a]pyrrolo[1,2-c]phthalazine-7-carboxylic acid] | 3 | 8100 | – | –
14 | CC1(C)CC[C@@H]2c3cc(OCc4ccccc4)c(OC(F)(F)F)cc3-c3cc(=O)c(C(=O)O)cn3N21 [Example 75, (R)-12-(benzyloxy)-3,3-dimethyl-8-oxo-11-(trifluoromethoxy)-2,3,8,13b-tetrahydro-1H-pyrido[2,1-a]pyrrolo[1,2-c]phthalazine-7-carboxylic acid] | – | 5000 | – | 6.1
15 | COCCCOc1cc2c(cc1Cl)-c1cc(=O)c(C(=O)O)cn1N1[C@@H]2CCC12CC2 (single isomer, unassigned) [Example 56] | 1.5 | – | > 10000 | –
16 | COCCCOc1cc2c(cc1OC(F)(F)F)-c1cc(=O)c(C(=O)O)cn1N1[C@@H]2CCC1(C)C [Example 79, (R)-12-(3-methoxypropoxy)-3,3-dimethyl-8-oxo-11-(trifluoromethoxy)-2,3,8,13b-tetrahydro-1H-pyrido[2,1-a]pyrrolo[1,2-c]phthalazine-7-carboxylic acid] | 1.1 | > 10000 | – | –
17 | COc1cc2c(cc1C#Cc1cncn1C)[C@H]1CCC(C)(C)N1n1cc(C(=O)O)c(=O)cc1-2 [Example 42, (R)-11-methoxy-3,3-dimethyl-12-((1-methyl-1H-imidazol-5-yl)ethynyl)-8-oxo-2,3,8,13btetrahydro-1H-pyrido[2,1-a]pyrrolo[1,2-c]phthalazine-7-carboxylic acid] | 4.8 | > 10000 | – | –
18 | COCc1cc2c(cc1C#CC(C)(C)OC)[C@H]1CCC(C)(C)N1n1cc(C(=O)O)c(=O)cc1-2 [Example 97, (R)-12-(3-methoxy-3-methylbut-1-yn-1-yl)-11-(methoxymethyl)-3,3-dimethyl-8-oxo-2,3,8,13b-tetrahydro-1H-pyrido[2,1-a]pyrrolo[1,2-c]phthalazine-7-carboxylic acid] | 8.6 | > 10000 | – | –
19 | CC1(C)CC[C@@H]2c3cc(OCCn4nc5ccccn5c4=O)c(C4CC4)cc3-c3cc(=O)c(C(=O)O)cn3N21 [Example 96, (R)-11-cyclopropyl-3,3-dimethyl-8-oxo-12-(2-(3-oxo-[1,2,4]triazolo[4,3-a]pyridin-2(3H)-yl)ethoxy)-2,3,8,13b-tetrahydro-1H-pyrido[2,1-a]pyrrolo[1,2-c]phthalazine-7-carboxylic acid] | 0.17 | > 10000 | – | –
20 | [2H]C([2H])(OC)C([2H])([2H])C([2H])([2H])Oc1cc2c(cc1COC)-c1cc(=O)c(C(=O)O)cn1N1[C@@H]2CCC1(C)C [Compound 118, (R)-11-(methoxymethyl)-12-(3-methoxypropoxy-1,1,2,2,3,3-d6)-3,3-dimethyl-8-oxo-2,3,8,13b-tetrahydro-1H-pyrido[2,1-a]pyrrolo[1,2-c]phthalazine-7-carboxylic acid] | 4.1 | > 10000 | – | –
21 | COCCCOc1cc2c(cc1C1CC1)-c1cc(=O)c(C(=O)O)cn1N1[C@@H]2CCC1(C)C [Example 28, (R)-11-cyclopropyl-12-(3-methoxypropoxy)-3,3-dimethyl-8-oxo-2,3,8,13b-tetrahydro-1H-pyrido[2,1-a]pyrrolo[1,2-c]phthalazine-7-carboxylic acid] | 0.78 | 8700 | – | –
